From ChEMBL document CHEMBL1201862, “PubChem BioAssay data set” (2004)
The source made the active and inactive calls.

Assays:
HEK293 [1] = assay: PMA/Ionomycin induced NF-kB luciferase assay in 293- NF-kB-Luc stable cells. [Related pubchem assays: 1299, 1270, 1295, 1375, 1287, 1281, 1293, 1291, 1289, 1280, 465, 1364, 1282, 1372, 1365, 1370, 1367, 1366, 1269, 1373, 1292, 1290, 1302, 1371, 1283, 1271, 1294, 1374, 1368, 1369 ]; format: functional, cell-based; details: Homo sapiens
[2] = target: Luciferin 4-monooxygenase (Photinus pyralis, UniProt P08659); assay: In vitro luciferase assay using purified luciferase. [Related pubchem assays: 1299, 1270, 1295, 1375, 1287, 1281, 1293, 1291, 1289, 1280, 465, 1364, 1282, 1372, 1365, 1370, 1367, 1366, 1266, 1373, 1292, 1290, 1302, 1371, 1283, 1271, 1294, 1374, 1368, 1369 ]
HEK293 [3] = assay: Cytotoxicity assay in HEK293 cells. [Related pubchem assays (depositor defined):AID1266, AID1269, AID1270, AID1271, AID1280, AID1281, AID1282, AID1283, AID1287, AID1289, AID1290, AID1291, AID1292, AID1293, AID1294, AID1295, AID1299, AID1302, AID1364, AID1365, AID1366, AID1367, AID1369, AID1370, AID1371, AID1372, AID1373, AID1374, AID1375, AID1384 …; format: functional, cell-based; details: Homo sapiens
[4] = target: Voltage-dependent T-type calcium channel subunit alpha-1H (Homo sapiens, UniProt O95180); format: functional;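 further: channel activity triggered by adding a high calcium stimulation buffer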
[5] = target: Photoreceptor-specific nuclear receptor (Homo sapiens, UniProt Q9Y5X4); format: functional;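 further: potency for compounds that break the NR2E3 corepressor complex and count as activators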
[6] = target: Peroxisome proliferator-activated receptor gamma/Nuclear receptor corepressor 2 (Homo sapiens, UniProt P37231+Q9Y618); format: functional
[7] = target: T1, Polyadenylate-binding protein 1 (Homo sapiens, UniProt P11940); assay: PABP1 MLLE–PAM2 interaction inhibitors, dose response, miRNA deadenylation inhibitor project, biochemical, fluorescence polarization, Cy5-PAM2 peptide, secondary (AID 602260); format: functional; details: read-out: IC50_Mean
[8] = target: T1, Polyadenylate-binding protein 1; assay: PABP1 MLLE–PAM2 binding inhibitor potency, dose response, biochemical, fluorescence polarization, FITC-PAM2 peptide (AID 602259); format: functional; details: read-out: IC50_Mean
HeLa = assay: HeLa cell cytotoxicity, dose response, cytotoxicity control, 24 h, cherry-picked samples (AID 504726); format: functional, cell-based; details: Homo sapiens;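 further: potency for cytotoxicity as loss of luminescence signal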
Salmon testes DNA = assay: DNA intercalators displacing acridine orange, dose response, artefact control for KSHV LANA DNA-binding inhibitor project, biochemical, fluorescence polarization, cherry-picked samples, set 2 (AID 504727); design: species or system Salmonidae
ORF 73 = target: T2, ORF 73 (Human herpesvirus 8, UniProt O40947); assay: inhibitors of C-LANA binding to LBS DNA, dose response, biochemical, fluorescence polarization, cherry-picked samples (AID 504725); design: species or system Human gammaherpesvirus 8;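 further: fluorescence polarization of a labeled DNA duplex reporting LANA DNA binding; potency is for inhibitors that block LANA binding to the DNA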
T2 sequence (O40947 whole entry): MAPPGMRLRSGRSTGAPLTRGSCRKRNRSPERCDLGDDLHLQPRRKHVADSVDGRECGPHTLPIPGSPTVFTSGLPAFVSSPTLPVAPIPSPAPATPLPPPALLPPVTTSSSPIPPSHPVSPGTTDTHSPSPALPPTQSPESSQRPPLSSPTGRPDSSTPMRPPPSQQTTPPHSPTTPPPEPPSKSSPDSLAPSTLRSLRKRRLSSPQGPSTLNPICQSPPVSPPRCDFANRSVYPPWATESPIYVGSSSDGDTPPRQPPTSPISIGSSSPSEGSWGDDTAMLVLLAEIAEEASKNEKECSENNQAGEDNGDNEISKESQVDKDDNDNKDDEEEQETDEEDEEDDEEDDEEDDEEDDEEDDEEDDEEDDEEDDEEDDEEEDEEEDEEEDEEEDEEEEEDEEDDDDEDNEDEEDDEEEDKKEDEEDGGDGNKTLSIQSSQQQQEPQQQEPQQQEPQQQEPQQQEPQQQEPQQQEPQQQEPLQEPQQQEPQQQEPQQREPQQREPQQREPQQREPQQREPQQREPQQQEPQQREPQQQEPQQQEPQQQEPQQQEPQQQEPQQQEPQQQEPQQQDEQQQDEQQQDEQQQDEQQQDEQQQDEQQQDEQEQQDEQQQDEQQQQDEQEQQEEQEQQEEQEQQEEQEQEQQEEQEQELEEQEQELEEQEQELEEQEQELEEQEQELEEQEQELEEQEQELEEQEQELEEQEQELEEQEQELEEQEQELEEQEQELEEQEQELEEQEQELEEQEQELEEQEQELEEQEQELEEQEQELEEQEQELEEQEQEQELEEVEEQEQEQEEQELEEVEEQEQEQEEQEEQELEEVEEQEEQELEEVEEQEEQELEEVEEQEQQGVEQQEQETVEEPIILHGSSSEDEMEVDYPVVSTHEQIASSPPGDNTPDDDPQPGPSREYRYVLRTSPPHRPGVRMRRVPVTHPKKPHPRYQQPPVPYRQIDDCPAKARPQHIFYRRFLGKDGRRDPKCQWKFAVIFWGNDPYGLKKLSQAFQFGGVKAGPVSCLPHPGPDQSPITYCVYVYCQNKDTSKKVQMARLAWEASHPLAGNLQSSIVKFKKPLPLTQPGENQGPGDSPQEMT

[9] = target: T3, Endoribonuclease toxin MazF (Escherichia coli K-12, UniProt P0AE70); assay: MazF toxin RNase activators, dose response, biochemical, fluorescence, single-stranded RNA substrate, uHTS hits (AID 588481); format: functional
T3 sequence (P0AE70 whole entry): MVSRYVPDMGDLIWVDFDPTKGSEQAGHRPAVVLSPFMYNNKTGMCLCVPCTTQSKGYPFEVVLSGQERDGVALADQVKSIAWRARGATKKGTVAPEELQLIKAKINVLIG

[10] = target: T3, Endoribonuclease toxin MazF; assay: fluorescent RNA oligo signal without MazF, dose response, counter-screen for MazEF activator project, biochemical, fluorescence, single-stranded RNase substrate (AID 588502); format: functional
[11] = target: Dual specificity protein phosphatase 3 (Homo sapiens, UniProt P51452); assay: VHR1 inhibitor Ki determination, SAR follow-up, biochemical, colorimetric (AID 2004)
[12] = tested on: Streptococcus sp. 'group A'; assay: growth inhibition of control SK(-) GAS strain, dose response, counter-screen for streptokinase expression inhibitor project, luminescence, kanamycin, BacTiterGlo, confirmation (AID 1900); format: functional, organism-based
[13] = cytotoxicity in HPDE-C7 cells, cell-based, fluorescence, HTS (AID 430); format: functional; details: Homo sapiens
[14] = cytotoxicity in KRAS-transformed pancreatic duct cells, primary screen, cell-based, fluorescence, HTS (AID 431); format: functional; details: Homo sapiens;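 further: cell line used: HPDE-C7K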
Streptococcus = assay: Group A Streptococcus viability loss, dose response, counter-screen for streptokinase expression inhibitor project, luminescence, BacTiterGlo (AID 1915); format: functional, organism-based;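 further: potency for reduction of bacterial viability or growth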
X-box-binding protein 1 = X-box-binding protein 1 (Homo sapiens, UniProt P17861); format: functional, Cricetulus griseus;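 further: confirmatory dose-response counter-screen serving a CHOP assay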
Chain of X-box-binding protein 1 (P17861 whole entry): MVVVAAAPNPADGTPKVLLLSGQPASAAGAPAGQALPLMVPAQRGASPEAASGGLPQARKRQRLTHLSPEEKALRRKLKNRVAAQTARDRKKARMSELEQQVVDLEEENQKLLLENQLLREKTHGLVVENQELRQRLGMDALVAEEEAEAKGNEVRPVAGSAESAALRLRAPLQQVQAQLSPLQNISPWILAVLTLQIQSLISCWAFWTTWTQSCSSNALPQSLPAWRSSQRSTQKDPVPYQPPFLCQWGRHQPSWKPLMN

T1 sequence (P11940 whole entry): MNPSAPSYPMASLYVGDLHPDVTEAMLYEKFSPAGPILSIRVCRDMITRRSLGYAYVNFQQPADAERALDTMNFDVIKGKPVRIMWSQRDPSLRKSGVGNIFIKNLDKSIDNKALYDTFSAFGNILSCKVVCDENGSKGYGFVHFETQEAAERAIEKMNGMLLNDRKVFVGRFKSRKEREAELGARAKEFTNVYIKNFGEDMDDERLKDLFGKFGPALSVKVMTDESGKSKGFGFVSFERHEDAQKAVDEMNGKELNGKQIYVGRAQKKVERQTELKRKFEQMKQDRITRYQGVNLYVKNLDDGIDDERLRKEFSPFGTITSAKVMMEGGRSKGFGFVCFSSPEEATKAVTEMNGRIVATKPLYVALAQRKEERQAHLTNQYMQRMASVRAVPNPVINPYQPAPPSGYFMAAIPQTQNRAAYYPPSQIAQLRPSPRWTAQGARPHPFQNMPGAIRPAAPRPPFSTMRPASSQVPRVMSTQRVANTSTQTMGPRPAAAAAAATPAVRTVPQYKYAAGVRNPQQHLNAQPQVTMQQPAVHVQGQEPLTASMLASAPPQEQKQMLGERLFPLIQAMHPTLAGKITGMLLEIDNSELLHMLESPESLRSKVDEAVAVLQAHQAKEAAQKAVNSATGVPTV
Chain of Dual specificity protein phosphatase 3 (P51452 whole entry): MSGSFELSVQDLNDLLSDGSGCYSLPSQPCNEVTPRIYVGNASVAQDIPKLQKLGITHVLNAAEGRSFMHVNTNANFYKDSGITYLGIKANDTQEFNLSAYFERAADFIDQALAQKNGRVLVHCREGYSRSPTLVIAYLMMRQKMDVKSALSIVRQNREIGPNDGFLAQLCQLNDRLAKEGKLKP
Chain of Photoreceptor-specific nuclear receptor (Q9Y5X4 whole entry): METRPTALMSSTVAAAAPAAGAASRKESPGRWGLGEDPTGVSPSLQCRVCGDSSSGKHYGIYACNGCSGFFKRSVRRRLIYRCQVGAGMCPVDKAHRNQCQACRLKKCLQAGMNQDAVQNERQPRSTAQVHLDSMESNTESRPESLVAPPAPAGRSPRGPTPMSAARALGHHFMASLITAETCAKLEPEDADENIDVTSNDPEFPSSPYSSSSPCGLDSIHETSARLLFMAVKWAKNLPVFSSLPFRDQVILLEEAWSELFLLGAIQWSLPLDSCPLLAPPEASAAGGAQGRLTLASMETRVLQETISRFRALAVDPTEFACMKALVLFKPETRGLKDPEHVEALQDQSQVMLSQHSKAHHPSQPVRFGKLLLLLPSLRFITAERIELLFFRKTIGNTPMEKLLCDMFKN
Chain of Luciferin 4-monooxygenase (P08659 whole entry): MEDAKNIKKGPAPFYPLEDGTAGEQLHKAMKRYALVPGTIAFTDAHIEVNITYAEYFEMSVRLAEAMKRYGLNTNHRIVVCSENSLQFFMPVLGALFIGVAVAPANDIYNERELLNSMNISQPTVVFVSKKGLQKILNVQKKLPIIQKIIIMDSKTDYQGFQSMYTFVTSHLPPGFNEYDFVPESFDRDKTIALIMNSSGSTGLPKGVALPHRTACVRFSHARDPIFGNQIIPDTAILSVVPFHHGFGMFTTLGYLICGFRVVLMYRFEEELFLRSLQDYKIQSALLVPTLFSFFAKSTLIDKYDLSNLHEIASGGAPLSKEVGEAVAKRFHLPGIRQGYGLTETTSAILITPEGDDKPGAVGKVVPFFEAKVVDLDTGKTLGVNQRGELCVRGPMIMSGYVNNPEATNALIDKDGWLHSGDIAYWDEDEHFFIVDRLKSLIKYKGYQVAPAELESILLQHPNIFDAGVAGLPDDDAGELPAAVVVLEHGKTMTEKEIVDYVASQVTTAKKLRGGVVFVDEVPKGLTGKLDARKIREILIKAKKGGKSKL
Chain of Voltage-dependent T-type calcium channel subunit alpha-1H (O95180 whole entry): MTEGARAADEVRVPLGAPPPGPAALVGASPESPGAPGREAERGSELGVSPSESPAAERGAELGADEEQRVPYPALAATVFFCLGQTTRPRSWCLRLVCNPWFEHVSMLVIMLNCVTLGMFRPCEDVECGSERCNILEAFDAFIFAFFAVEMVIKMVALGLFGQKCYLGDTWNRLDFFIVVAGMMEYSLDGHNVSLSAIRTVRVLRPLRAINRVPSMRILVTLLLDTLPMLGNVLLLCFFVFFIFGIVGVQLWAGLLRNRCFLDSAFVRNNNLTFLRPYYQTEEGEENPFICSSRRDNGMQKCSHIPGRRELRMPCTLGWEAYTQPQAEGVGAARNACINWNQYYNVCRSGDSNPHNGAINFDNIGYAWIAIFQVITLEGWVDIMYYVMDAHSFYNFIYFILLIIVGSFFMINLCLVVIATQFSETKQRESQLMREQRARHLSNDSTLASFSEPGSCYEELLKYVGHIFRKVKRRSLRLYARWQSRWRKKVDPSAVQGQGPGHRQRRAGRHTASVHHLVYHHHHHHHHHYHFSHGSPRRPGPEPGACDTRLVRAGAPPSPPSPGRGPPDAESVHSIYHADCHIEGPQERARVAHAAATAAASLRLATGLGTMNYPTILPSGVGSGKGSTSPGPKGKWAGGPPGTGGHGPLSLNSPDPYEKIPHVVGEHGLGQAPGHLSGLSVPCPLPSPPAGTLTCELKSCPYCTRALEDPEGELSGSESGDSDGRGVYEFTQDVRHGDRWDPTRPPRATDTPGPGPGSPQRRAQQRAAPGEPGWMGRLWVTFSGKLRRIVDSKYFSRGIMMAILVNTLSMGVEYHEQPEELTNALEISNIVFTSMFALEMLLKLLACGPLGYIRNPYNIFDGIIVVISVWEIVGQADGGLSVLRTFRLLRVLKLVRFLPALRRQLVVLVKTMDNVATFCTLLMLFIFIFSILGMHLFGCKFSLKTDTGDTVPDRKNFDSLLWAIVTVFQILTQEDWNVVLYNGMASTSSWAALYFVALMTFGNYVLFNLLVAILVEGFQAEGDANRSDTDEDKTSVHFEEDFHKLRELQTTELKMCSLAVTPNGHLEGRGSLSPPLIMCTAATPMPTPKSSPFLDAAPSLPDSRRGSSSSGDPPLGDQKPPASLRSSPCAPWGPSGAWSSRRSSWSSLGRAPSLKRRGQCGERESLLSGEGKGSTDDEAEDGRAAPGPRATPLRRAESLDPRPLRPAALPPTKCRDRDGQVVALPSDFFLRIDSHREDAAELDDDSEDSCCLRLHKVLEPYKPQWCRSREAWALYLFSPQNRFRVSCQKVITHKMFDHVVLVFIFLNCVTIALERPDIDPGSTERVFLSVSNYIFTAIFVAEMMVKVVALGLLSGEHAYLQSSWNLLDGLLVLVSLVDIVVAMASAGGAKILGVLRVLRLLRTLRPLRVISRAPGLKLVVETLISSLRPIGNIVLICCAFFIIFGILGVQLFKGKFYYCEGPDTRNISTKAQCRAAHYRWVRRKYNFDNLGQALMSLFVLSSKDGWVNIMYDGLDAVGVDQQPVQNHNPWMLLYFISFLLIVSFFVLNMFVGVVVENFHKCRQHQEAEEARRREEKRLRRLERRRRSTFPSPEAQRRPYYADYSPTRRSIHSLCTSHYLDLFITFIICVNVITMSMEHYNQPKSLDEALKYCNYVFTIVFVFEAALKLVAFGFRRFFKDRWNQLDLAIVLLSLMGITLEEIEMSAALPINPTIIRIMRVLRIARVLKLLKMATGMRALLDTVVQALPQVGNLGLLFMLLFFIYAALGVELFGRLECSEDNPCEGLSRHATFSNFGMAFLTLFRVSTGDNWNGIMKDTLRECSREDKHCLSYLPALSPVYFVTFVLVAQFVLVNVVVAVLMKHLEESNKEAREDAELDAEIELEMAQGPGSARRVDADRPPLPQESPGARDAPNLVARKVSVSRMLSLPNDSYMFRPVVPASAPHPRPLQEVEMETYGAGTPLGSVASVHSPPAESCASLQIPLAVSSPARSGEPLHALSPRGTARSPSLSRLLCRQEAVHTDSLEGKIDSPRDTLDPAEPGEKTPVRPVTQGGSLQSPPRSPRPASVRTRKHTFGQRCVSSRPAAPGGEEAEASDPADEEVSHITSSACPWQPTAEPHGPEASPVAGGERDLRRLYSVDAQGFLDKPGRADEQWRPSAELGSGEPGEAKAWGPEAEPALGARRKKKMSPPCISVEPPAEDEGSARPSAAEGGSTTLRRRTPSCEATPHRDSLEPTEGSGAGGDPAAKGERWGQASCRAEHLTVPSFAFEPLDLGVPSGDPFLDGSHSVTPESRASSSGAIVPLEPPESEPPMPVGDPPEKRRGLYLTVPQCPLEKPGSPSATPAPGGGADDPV

Cc1csc(NC(=O)c2sc3nc(-c4cccs4)ccc3c2N)n1
EC50 (HEK293 [1]): 15.8 µM (not active) | EC50 [2]: > 8 µM (not active) | EC50 (HEK293 [3]): > 8 µM (inactive) | EC50 [4]: 6.54 µM (active)

COc1cccc(NC(=S)Nc2cc(C)cc(C)n2)c1
IC50 [5]: 2.04 µM (active) | IC50 [6]: 1.61 µM (active) | IC50 [7]: > 66 µM (inactive) | IC50 [8]: > 66 µM (inactive)

COc1ccc(-c2cc(C(F)(F)F)c3c(N)c(C(=O)NCCSC)sc3n2)cc1
AC50 (HeLa): 45.9 µM (active) | AC50 (Salmon testes DNA): 58.9 µM (active) | AC50 (ORF 73): 34.5 µM (active) | EC50 [9]: > 99 µM (inactive) | EC50 [10]: 61.6 µM (inactive)

CCOC(=O)c1sc(N/N=C/c2cccc(O)c2)nc1C
Ki [11]: 120 µM (inactive)

O=C1c2n[nH]c(-c3ccccc3O)c2C(c2cccc(Cl)c2)N1Cc1ccco1 (centres undefined)
EC50 [12]: 6.78 µM (active) | EC50 [13]: 7.07 µM (active) | EC50 [14]: 9.83 µM (active) | EC50 (Streptococcus): > 150 µM (inconclusive) | Absolute IC50 (XBP1) (X-box-binding protein 1): 10 µM
